Where a name gives a salt, the structure may show the parent alone. Read-outs that look alike come from different tables or passages of the source.
Legend:
[1] = system: NCI-H292 lung cancer cells; assay: FDA drug screening, complete media vs cholesterol-free media with simvastatin (TABLE 2); assay type: cell-based, human
[2] = system: NCI-H292 lung cancer cells; assay: FDA drug screening, complete media vs cholesterol-free media without statin (TABLE 1); assay type: cell-based, human
[3] = NCI-H292 cells, cholesterol-free media with simvastatin 0.04 μM, FDA drug library screen (TABLE 2)
[4] = NCI-H292 cells, complete media, FDA drug library screen (TABLE 2)
[5] = complete media minus cholesterol-free media + simvastatin (0.04 μM), >0 enhanced anti-cancer activity, about 0 neutral, <0 antagonist
[6] = Complete minus Cholesterol-free, >0 enhanced anti-cancer activity, about 0 neutral, <0 antagonist
[7] = NCI-H292 cells, cholesterol-free media without statin, FDA drug library screen
[8] = NCI-H292 cells, complete media, FDA drug library screen
[9] = NCI-H292 cells, FDA drug library screen, cholesterol-free media with simvastatin 0.04 μM
[10] = NCI-H292 cells, FDA drug library screen, complete media
[11] = complete media vs cholesterol-free media + simvastatin (0.04 μM), >0 enhanced anti-cancer activity, about 0 neutral, <0 antagonist
[12] = NCI-H292 cells, drug in cholesterol-free media with simvastatin 0.04 μM
[13] = NCI-H292 cells, cholesterol-free media without statin
[14] = NCI-H292 cells, drug in complete media
[15] = complete vs cholesterol-free media, greater than 0 enhanced anti-cancer activity, about 0 neutral, below 0 antagonists
[16] = complete vs cholesterol-free media, >0 enhanced anti-cancer activity, about 0 neutral, <0 antagonist
[17] = NCI-H292 cells, FDA drug library screen, cholesterol-free media without statin
[18] = NCI-H292 cells, cholesterol-free media with simvastatin 0.04 μM, cell growth value in FDA drug screen
[19] = NCI-H292 cells, complete media, cell growth value in FDA drug screen
[20] = complete media minus cholesterol-free media + simvastatin, >0 enhanced anti-cancer activity, about 0 neutral, <0 antagonist
[21] = Complete minus Cholesterol-free, greater than 0 enhanced anti-cancer activity, about 0 neutral, below 0 antagonists
[22] = NCI-H292 cells in cholesterol-free media without statin
[23] = NCI-H292 cells in complete media
[24] = complete media minus cholesterol-free media + simvastatin (0.04 μM), […]
[25] = Complete minus Cholesterol-free, […]
[26] = NCI-H292 cells, FDA library drug in cholesterol-free media with simvastatin 0.04 μM
[27] = NCI-H292 cells, FDA library drug in complete media

Row | Molecule | Difference [2, 6] | Cholesterol-free [2, 7] | Complete [2, 8] | Cholesterol-free media + simvastatin (0.04 μM) [1, 9] | Difference [1, 11] | Cholesterol-free [2, 13] | Complete ([2]; NCI-H292 cells, complete media) | Difference [1, 20] | further results
1 | CCN(CC)CCOC(=O)C(Cc1cccc2ccccc12)CC1CCCO1.O=C(O)C(=O)O (centres unmarked) [Naftidrofuryl (oxalate)] | −0.04 | 1.015 | 0.9733 |  |  |  |  |  | Cholesterol-free media + simvastatin (0.04 μM) [1, 3]: 1.139; Complete Media [1, 4]: 1.076; Difference [1, 5]: −0.06
2 | Cn1cnc2c(F)c(Nc3ccc(Br)cc3F)c(C(=O)NOCCO)cc21 [Binimetinib] | 0.01 | 0.1731 | 0.1825 | 0.4887 | −0.11 |  |  |  | Complete Media [1, 10]: 0.381
3 | CN1C(=O)C[C@@H](C(=O)N[C@@H](Cc2c[nH]cn2)C(=O)N2CCC[C@H]2C(N)=O)NC1=O [Taltirelin] |  |  |  |  |  | 1.305 | 0.871 |  | Cholesterol-free media + simvastatin (0.04 μM) [1, 12]: 1.39; Difference ([1]; complete media vs cholesterol-free media + simvastatin (0.04 μM), […]): −0.24; Difference ([2]; complete vs cholesterol-free media, […]): −0.43
4 | C[C@]12CC[C@@H]3c4ccc(OC(=O)c5ccccc5)cc4CC[C@H]3[C@@H]1CC[C@@H]2O [Estradiol benzoate] |  |  |  |  | −0.25 | 1.285 | 0.9221 |  | Cholesterol-free media + simvastatin (0.04 μM) [1, 12]: 1.387; Complete Media [1, 14]: 1.134; Difference [2, 15]: −0.36
5 | O=C(O)c1cc2ccccc2c(Cc2c(O)c(C(=O)O)cc3ccccc23)c1O.OCCOCCN1CCN(C(c2ccccc2)c2ccc(Cl)cc2)CC1 [Hydroxyzine (pamoate)] |  | 0.6403 | 0.9622 | 1.16 | −0.11 |  |  |  | Complete Media [1, 10]: 1.053; Difference [2, 16]: 0.32
6 | O=C(O)COC(=O)Cc1ccccc1Nc1c(Cl)cccc1Cl [Aceclofenac] |  | 0.9513 | 1.14 | 1.455 | −0.13 |  |  |  | Complete Media [1, 10]: 1.329; Difference [2, 16]: 0.19
7 | CCCN(CCc1cccs1)[C@H]1CCc2c(O)cccc2C1 [Rotigotine (Hydrochloride)] |  |  |  | 0.8026 | −0.13 |  |  |  | Complete Media [1, 10]: 0.6752; Difference ([2]; Complete minus Cholesterol-free, greater than 0 enhanced anti-cancer activity, about 0 neutral, below 0 antagonist): −0.08; Cholesterol-free [2, 17]: 0.8788; Complete [2, 10]: 0.7943
8 | C[C@@H](O)[C@H]1C(=O)N2C(C(=O)O)=C([C@H]3CCCO3)S[C@H]12 [Faropenem sodium] | −0.02 | 0.8692 | 0.8522 |  |  |  |  | 0.04 | Cholesterol-free media + simvastatin (0.04 μM) [1, 18]: 0.9421; Complete Media [1, 19]: 0.984
9 | C=C1[C@H](CO)[C@@H](O)C[C@@H]1n1cnc2c(=O)[nH]c(N)nc21 [Entecavir (monohydrate)] |  |  |  |  | −0.20 |  |  |  | Cholesterol-free media + simvastatin (0.04 μM) [1, 12]: 1.17; Complete Media [1, 14]: 0.9716; Difference [2, 21]: −0.52; Cholesterol-free [2, 22]: 1.519; Complete [2, 23]: 1
10 | CC(C)COCC(CN(Cc1ccccc1)c1ccccc1)N1CCCC1 (centres unmarked) [Bepridil hydrochloride] | −0.19 |  |  | 1.312 |  | 1.009 | 0.8157 | 0.27 | Complete Media [1, 10]: 1.584
11 | NNc1nncc2ccccc12 [Hydralazine (hydrochloride)] |  |  |  |  |  | 1.529 | 1.081 | 0.06 | Cholesterol-free media + simvastatin (0.04 μM) [1, 18]: 1.049; Complete Media [1, 19]: 1.113; Difference [2, 15]: −0.45
12 | COc1ccc2c(c1O)-c1c(OC)c(OC)cc3c1[C@H](C2)N(C)CC3 [Isocorydine] |  |  |  |  |  |  |  |  | Cholesterol-free media + simvastatin (0.04 μM) [1, 3]: 1.273; Complete Media [1, 4]: 1.214; Difference [1, 24]: −0.06; Difference [2, 25]: −0.17; Cholesterol-free [2, 17]: 1.162; Complete [2, 10]: 0.9961
13 | CC(=O)Oc1cc2c(s1)CCN(C(C(=O)C1CC1)c1ccccc1F)C2 (centres unmarked) [Prasugrel (hydrochloride)] |  | 0.9393 | 1.044 |  | −0.16 |  |  |  | Cholesterol-free media + simvastatin (0.04 μM) [1, 12]: 1.213; Complete Media [1, 14]: 1.05; Difference [2, 16]: 0.10
14 | C[C@]12C=CC(=O)C=C1CC[C@@H]1[C@@H]2C(=O)C[C@@]2(C)[C@H]1CC[C@]2(O)C(=O)CO [Prednisone] |  |  |  |  |  |  |  | 0.07 | Cholesterol-free media + simvastatin (0.04 μM) [1, 18]: 0.9598; Complete Media [1, 19]: 1.028; Difference [2, 21]: −0.52; Cholesterol-free [2, 22]: 1.522; Complete [2, 23]: 1.002
15 | COc1ccc2cc1Oc1ccc(cc1)C[C@H]1c3c(cc4c(c3Oc3cc5c(cc3OC)CCN(C)[C@@H]5C2)OCO4)CCN1C [cepharanthine, reference compound] | 0.04 | 1.12 | 1.159 | 0.1249 |  |  |  | 1.27 | Complete Media [1, 10]: 1.4
16 | CN1CC2c3ccccc3Oc3ccc(Cl)cc3C2C1 (centres unmarked) [Asenapine] |  |  |  |  | −0.22 | 1.636 | 1.303 |  | Cholesterol-free media + simvastatin (0.04 μM) [1, 12]: 0.918; Complete Media [1, 14]: 0.7002; Difference [2, 15]: −0.33
17 | CC(C(=O)O)c1ccc(-c2ccccc2)c(F)c1 (centres unmarked) [Flurbiprofen] |  | 1.072 | 1.387 |  | −0.18 |  |  |  | Cholesterol-free media + simvastatin (0.04 μM) [1, 12]: 1.217; Complete Media [1, 14]: 1.042; Difference [2, 16]: 0.31
18 | CC(=O)NS(=O)(=O)c1ccc(N)cc1 [Sulfacetamide (Sodium)] | 0.04 | 0.8669 | 0.9047 | 1.134 |  |  |  | 0.25 | Complete Media [1, 10]: 1.384
19 | O=C(O)[C@H](O)[C@@H](O)[C@H](O)[C@H](O)CO [D-Gluconic acid] |  |  |  |  |  |  |  |  | Cholesterol-free media + simvastatin (0.04 μM) [1]: 1.103; Complete Media [1]: 0.9995; Difference [1]: −0.10; Cholesterol-free [2]: 1.845; Complete [2]: 1.115; Difference [2]: −0.73
20 | CC(C)[C@]12O[C@H]1[C@@H]1O[C@]13[C@]1(O[C@H]1C[C@H]1C4=C(CC[C@@]13C)C(=O)OC4)[C@@H]2O [Triptolide] |  | 0.04113 | 0.03049 |  |  |  |  |  | Cholesterol-free media + simvastatin (0.04 μM) [1, 3]: 0.007136; Complete Media [1, 4]: −0.02177; Difference [1, 24]: −0.03; Difference [2, 25]: −0.01
21 | CC(C)NCC(O)COc1ccc(COCCOC(C)C)cc1.CC(C)NCC(O)COc1ccc(COCCOC(C)C)cc1.O=C(O)/C=C/C(=O)O (racemic) [(±)-Bisoprolol (hemifumarate)] | −0.20 |  |  | 0.9429 |  | 1.077 | 0.8813 | 0.21 | 
22 | Cc1ccsc1C(=CCCN1CCC[C@@H](C(=O)O)C1)c1sccc1C [Tiagabine (hydrochloride)] | −0.25 |  |  |  |  | 1.406 | 1.159 | 0.13 | Cholesterol-free media + simvastatin (0.04 μM) [1, 18]: 0.8465; Complete Media [1, 19]: 0.9752
23 | Ribociclib succinate hydrate | −0.21 |  |  |  |  | 0.9345 | 0.7226 | 0.14 | Cholesterol-free media + simvastatin (0.04 μM) [1, 18]: 0.4954; Complete Media [1, 19]: 0.6321
24 | Vitamin B12 |  |  |  |  |  |  | 0.9199 |  | Cholesterol-free media + simvastatin (0.04 μM) ([1]; NCI-H292 cells, cholesterol-free media with simvastatin 0.04 μM, […]): 1.198; Complete Media ([1]; NCI-H292 cells, complete media, […]): 1.289; Difference ([1]; complete media minus cholesterol-free media + simvastatin, […]): 0.09; Difference [2, 25]: −0.19
25 | O=C(O)Cc1ccccc1Nc1c(Cl)cccc1Cl [Diclofenac (Sodium)] | −0.23 |  |  |  | −0.45 | 1.086 | 0.859 |  | Cholesterol-free media + simvastatin (0.04 μM) [1, 26]: 1.356; Complete Media [1, 27]: 0.9075
26 | Cc1ccc(S(=O)(=O)NC(=O)NN2CC3CCCC3C2)cc1 (centres unmarked) [Gliclazide] | 0.04 | 1.079 | 1.122 |  | −0.28 |  |  |  | Cholesterol-free media + simvastatin (0.04 μM) [1, 26]: 1.233; Complete Media [1, 27]: 0.9583
27 | CS(=O)(=O)Nc1ccc([N+](=O)[O-])cc1Oc1ccccc1 [Nimesulide] | −0.26 |  |  | 0.9827 |  | 1.157 | 0.8983 | 0.17 | 
28 | Nc1cccc2c1C(=O)N(C1CCC(=O)NC1=O)C2=O (centres unmarked) [Pomalidomide] | −0.27 |  |  |  |  | 1.37 | 1.095 |  | Cholesterol-free media + simvastatin (0.04 μM) [1, 3]: 1.093; Complete Media [1, 4]: 1.03; Difference [1, 5]: −0.06

Source: patent US20250144067A1, “PERSONALIZED STARVATION THERAPY FOR CANCER” (Faeth Therapeutics, Inc., priority 2021, published 2025)
